# From PMC4666608, “Metabolic Profiling of Chicken Embryos Exposed to Perfluorooctanoic Acid (PFOA) and Agonists to Peroxisome Proliferator-Activated Receptors” (PLoS ONE, 2015)
# Marks after values point to notes of the source that are not given here.
# System: chicken embryos
# Experiment: Metabolic profiling of allantoic fluid (GC-MS, LC-MS, OPLS-DA)
# Type: in vivo, Gallus gallus domesticus
# Details: for Mean concentration relative to control, feature Win004_C08 / Mean concentration relative to control, feature Win005_C07 / Mean concentration relative to control, feature Win008_C06 / Mean concentration relative to control, feature Win022_C01 / Mean concentration relative to control, feature Win023_C06 / Mean concentration relative to control, feature win006_C01 / Mean concentration relative to control, feature Win008_C07 / Mean concentration relative to control, feature Win023_C03 / Mean concentration relative to control, feature Win007_C09 / Mean concentration relative to control, feature Win008_C05 / Mean concentration relative to control, feature Win018_C04 / Mean concentration relative to control, feature Win007_C03 / Mean concentration relative to control, feature Win042_C02 / Mean concentration relative to control, feature Win009_C03 / Mean concentration relative to control, feature Win008_C04 / Mean concentration relative to control, feature Win005_C03 / Mean concentration relative to control, feature Win013_C05: GC; for Mean concentration relative to control, feature Win008_C07: tentative 1-Aminocyclopropanecarboxylic acid; for Mean concentration relative to control, feature Win023_C03: tentative 2-Oxoglutaric acid; for Mean concentration relative to control, feature Win007_C09 / Mean concentration relative to control, feature Win008_C05: tentative 2-Oxovaleric acid; for Mean concentration relative to control, feature Win018_C04: tentative 3-Amino-2-piperidone; for Mean concentration relative to control, feature Win007_C03: tentative 3-Hydroxybutanoic acid; for Mean concentration relative to control, feature Win042_C02: tentative Cystathionine; for Mean concentration relative to control, feature Win009_C03: tentative Ketoleucine; for Mean concentration relative to control, feature Win008_C04: tentative Malonic acid; for Mean concentration relative to control, feature Win005_C03: tentative Oxalic acid; for Mean concentration relative to control, feature Win013_C05: tentative Succinic acid
# Experimental: Controls were injected with 20 μL vehicle only (DMSO).
# Plasma was collected and stored at -70°C.
# Metabolites in allantoic fluid and blood plasma were analyzed using gas chromatography-mass spectrometry (GC-MS) and liquid chromatography-mass spectrometry (LC-MS) as described in S1 Methods. Prior to GC-MS and LC-MS analysis, allantoic fluid (100 μL) and blood plasma (50 μL) were extracted. To each sample, 900 μL (allantoic fluid) or 450 μL (blood plasma) of extraction buffer (90/10 v/v methanol:water) including all internal standards were added. Standards for GC-MS were proline, succinic acid, glutamic acid, salicylic acid, alpha-ketoglutarate, putrescine, myristic acid, hexadecanoic acid, cholesterol, and sucrose. Standards for LC-MS were Val-Tyr-Val, Leu-enkephalin, sulfadimethoxine and reserpine. Samples were homogenized by shaking in a bead mill at a frequency of 30 Hz for 3 minutes and proteins were precipitated at +4°C on ice. The samples were centrifuged at +4°C, 14000 rpm, for 10 min. Then, 200 μL supernatant was transferred to a GC microvial and 200 μL was transferred to an LC microvial, and solvents were evaporated. Samples from the four replicate experiments were analyzed using in chronological order and within each replicate experiment the run order of the individual samples was randomized.
# Multivariate statistical analyses of metabolite profiles were performed using the software package SIMCA-P version 13.0 (Umetrics, Umeå, Sweden). Data was centered and scaled to variance 1 (UV scaling) prior to modelling. To reduce unintended systematic variation caused by sample processing and instrument drift, GC-MS and LC-MS metabolite amounts (expressed as the area under the chromatographic peak) were normalized by Orthogonal Partial Least Squares analysis (O2PLS) prior to multivariate data analysis. O2PLS finds common (predictive) and unique (orthogonal) variation in two data matrices. If applied to find the common variation between the data matrix containing the measured metabolite concentrations and a matrix containing only the internal standards, the only common (predictive) variation expected is due to the unintended systematic variation. By deleting the contribution of the predictive latent variables, that variation can be removed from the data. Models obtained after this normalization contain in general less latent variables, and this simplification helps when deciding on the number of latent variables to be used. Following normalization, GC-MS and LC-MS data were analyzed together. Initially, a global Principal Component Analysis (PCA) was performed to get an overview of groups and trends and to identify outliers. Projections to latent structures by means of Orthogonal Partial Least Squares Discriminant Analysis (OPLS-DA) was used to model the relationship between the X-matrix (metabolite concentrations) and the Y matrix (class, i.e. exposure group or sex), and to find x-variables that were related to class belonging. OPLS-DA is a supervised prediction and regression method that rotates the projection plane to find the maximum covariance between the data and the class assignment. All groups were first analyzed together in a 5-class OPLS-DA and then each exposure group was analyzed against the control group in a 2-class OPLS-DA. Sex differences were analyzed both using the whole data set and in each group separately using 2-class OPLS-DA, with females and males as the two classes. Only variables with 80% or more nonzero values were included in the statistical models. […] The validity of each model was also checked using CV-ANOVA (ANOVA of the cross-validated residuals). A significance level of p < 0.05 was used. For each model, R ^2 X, R ^2 Y and Q ^2 values were calculated, where R ^2 X is a measure of the fraction of x variation modeled in the extracted latent variables, R ^2 Y is a measure of the fraction of y variation modeled and Q ^2 is an estimate of the predictive ability of the model and is calculated by cross-validation. […]
smiles,measurement,setting,value
"O=C(O)C(F)(F)C(F)(F)C(F)(F)C(F)(F)C(F)(F)C(F)(F)C(F)(F)F [PFOA, perfluorooctanoic acid]","Mean concentration relative to control, feature Win004_C08",PFOA 50 μg/egg,1.0
same,"Mean concentration relative to control, feature Win005_C07",PFOA 50 μg/egg,1.0
same,"Mean concentration relative to control, feature Win008_C06",PFOA 50 μg/egg,1.0
same,"Mean concentration relative to control, feature Win022_C01",PFOA 50 μg/egg,1.0
same,"Mean concentration relative to control, feature Win023_C06",PFOA 50 μg/egg,0.8
same,"Mean concentration relative to control, feature win006_C01",PFOA 50 μg/egg,1.0
same,"Mean concentration relative to control, feature Win008_C07",PFOA 50 μg/egg,1.1
same,"Mean concentration relative to control, feature Win023_C03",PFOA 50 μg/egg,1.0
same,"Mean concentration relative to control, feature Win007_C09",PFOA 50 μg/egg,1.0
same,"Mean concentration relative to control, feature Win008_C05",PFOA 50 μg/egg,1.0
same,"Mean concentration relative to control, feature Win018_C04",PFOA 50 μg/egg,1.0
same,"Mean concentration relative to control, feature Win007_C03",PFOA 50 μg/egg,1.0
same,"Mean concentration relative to control, feature Win042_C02",PFOA 50 μg/egg,1.1
same,"Mean concentration relative to control, feature Win009_C03",PFOA 50 μg/egg,0.9
same,"Mean concentration relative to control, feature Win008_C04",PFOA 50 μg/egg,1.1
same,"Mean concentration relative to control, feature Win005_C03",PFOA 50 μg/egg,0.9
same,"Mean concentration relative to control, feature Win013_C05",PFOA 50 μg/egg,1.0
same,"Mean concentration relative to control, feature Win004_C08",PFOA 250 μg/egg,1.0
same,"Mean concentration relative to control, feature Win005_C07",PFOA 250 μg/egg,1.0
same,"Mean concentration relative to control, feature Win008_C06",PFOA 250 μg/egg,1.2
same,"Mean concentration relative to control, feature Win022_C01",PFOA 250 μg/egg,1.1
same,"Mean concentration relative to control, feature Win023_C06",PFOA 250 μg/egg,1.1
same,"Mean concentration relative to control, feature win006_C01",PFOA 250 μg/egg,1.0
same,"Mean concentration relative to control, feature Win008_C07",PFOA 250 μg/egg,1.0
same,"Mean concentration relative to control, feature Win023_C03",PFOA 250 μg/egg,1.1
same,"Mean concentration relative to control, feature Win007_C09",PFOA 250 μg/egg,1.0
same,"Mean concentration relative to control, feature Win008_C05",PFOA 250 μg/egg,1.0
same,"Mean concentration relative to control, feature Win018_C04",PFOA 250 μg/egg,1.1
same,"Mean concentration relative to control, feature Win007_C03",PFOA 250 μg/egg,1.0
same,"Mean concentration relative to control, feature Win042_C02",PFOA 250 μg/egg,1.3
same,"Mean concentration relative to control, feature Win009_C03",PFOA 250 μg/egg,1.0
same,"Mean concentration relative to control, feature Win008_C04",PFOA 250 μg/egg,1.1
same,"Mean concentration relative to control, feature Win005_C03",PFOA 250 μg/egg,0.9
same,"Mean concentration relative to control, feature Win013_C05",PFOA 250 μg/egg,1.1
same,"Mean concentration relative to control, feature 134.0239@1.1350567","LC, PFOA 50 μg/egg",1.2
same,"Mean concentration relative to control, feature 145.0538@3.072527","LC, PFOA 50 μg/egg",1.0
same,"Mean concentration relative to control, feature 147.0328@3.0722888","LC, PFOA 50 μg/egg",1.0
same,"Mean concentration relative to control, feature 160.0323@1.1950632","LC, PFOA 50 μg/egg",1.0
same,"Mean concentration relative to control, feature 173.0488@3.0734746","LC, PFOA 50 μg/egg",1.0
same,"Mean concentration relative to control, feature 176.0952@1.3890611","LC, PFOA 50 μg/egg",0.6*
same,"Mean concentration relative to control, feature 178.0428@1.7582192","LC, PFOA 50 μg/egg",0.9
same,"Mean concentration relative to control, feature 180.0048@4.421465","LC, PFOA 50 μg/egg",1.0
same,"Mean concentration relative to control, feature 189.1159@1.9209185","LC, PFOA 50 μg/egg",0.9
